Legend:
[1] = test system: U251MG and U87MG cell lines; assay: Matrigel invasion assay in established GBM lines; assay type: cell-based, human; conditions: for cell invasion: EGF 50 ng/ml
Method: Invasion status of cells was tested with Matrigel Boyden chamber assays (Fisher). 1×10^5 cells were plated on BD BioCoat Matrigel invasion chambers. 24 hours after treatment with drugs, invaded cells were stained with the HEMA-3 kit (Fisher). Invaded cells were counted in 4-5 random fields.
Referring to FIG. 6A-E, EGF inhibits EGFR overexpression induced cell invasion. […] Tetracycline induced EGFR overexpression was confirmed by Western blotting (FIG. 6E). The Western blot images are representative of three independent biological replicates. Actin served as loading control. Data are represented as mean±SEM from three independent experiments. **P<0.01, ***P<0.001, n.s. not significant, unpaired two-tailed t-test.

[2] = test system: GBM12 mouse intracranial tumors; assay: Exogenous EGF infusion into GBM12 intracranial tumors; assay type: in vivo, mice; conditions: EGF infused into lateral ventricles by miniosmotic pump
Method: 4 to 6 weeks old female athymic nude mice were purchased from Charles River Laboratories. Mayo PDXs were injected into the right corpus striatum of the brains of 6-8 week-old nude mice using a stereotactic frame. […] Kaplan-Maier survival curves were calculated using GraphPad Prism 7.0 software. Alzet Osmotic pumps were installed for brain delivery of EGF or vehicle in tumor bearing mice. To monitor the mice with orthotropic xenografts, MRI was performed at the Mouse MRI Core, Advanced Imaging Research Center, at UT Southwestern.
Next, the impact of EGFR ligand on GBM invasion was examined in an orthotopic mouse model. To induce ligand activation of EGFR in vivo, ligand to EGFR-expressing tumors were provided by generating an autocrine loop or by exogenous infusion of ligand. In the autocrine loop experiment, ligand for EGFRwt is provided by the same cells that express the EGFR. Autocrine loops involving EGFR and its ligands are well described in GBM (Ramnarain et al. (2006) Cancer Res. 66: 867-874; Tang et al. (1997) J. Neurooncol. 35: 303-314). […]
Western blot analysis of TGFα, pEGFR, EGFR, and BIN3 in PDXs stably transfected with empty (GBM12V, GBM6V, GBM22V) or TGFα expressing vector (GBM12TGFα, GBM6TGFα, GBM22TGFα) is shown in FIG. 12A. […] Quantitative analysis of HNA positive cells in mouse tumor tissue sections. […]

Met = assay: Western blot of pMet and total Met; assay type: cell-based, human; conditions: HGF 20 ng/ml; GBM12 and GBM6
Method: Whole protein extracts from cells or tumor tissues were analyzed by western blot as previously described (Altieri et al. (2015) Surg. Technol. Int 27: 297-302). Mayo PDX cells were serum starved overnight. Following treatment for specific time, cells were harvested and lysed. The human glioblastoma tissues were ground in liquid nitrogen and then were lysed. EGFR (06-847) antibody was from Millipore. DOCK7 was from Proteintech (Rosemont, Ill.). pEGFR (2236), STAT3 (12640), pSTAT3 (9145), cdc42(4376), and RhoA (4695) antibodies were from Cell Signaling Technology (Danvers, Mass.). TGFα antibody was from R&D system. BIN3 (sc-514396) and (3-Actin (sc-47778) were from Santa Cruz Biotechnology (Dallas, Tex.).
Referring to FIG. 11A-E, HGF induces invasion in GBM12 and GBM6. […] Cells were seeded on Matrigel coated inserts for 24 hours in the absence or presence of HGF (20 ng/ml). A Western blot analysis of DOCK7 antibody immunoprecipitated extracts from GBM12 and GBM6 treated with HGF for 24 hours (20 ng/ml) is shown in FIG. 11C. A Western blot showing GTP-bound RhoA (RhoA-GTP) and total RhoA levels after HGF treatment for 24 hours in GBM12 and GBM6 is shown in FIG. 11D. A Western blot showing CDC42-GTP and total CDC42 levels after HGF treatment (20 ng/ml) for 24 hours in GBM12 and GBM6. The Western blot images are representative of three independent biological replicates. […]

Substance	cell invasion ([1]; EGFR overexpressed in U87MG and U251MG)	cell invasion ([1]; U251MG and U87MG with low endogenous EGFR)	invasion increased by inducible EGFRwt expression ([1]; tetracycline induced EGFR overexpressing U251MG cells, plus EGF)	tumor size (MRI) [2]	tumor invasiveness ([2]; H&E, SMI-31, HNA staining)	Met phosphorylation (Met)
EGF: Recombinant human EGF (AF-100) from Peprotech; EGFR ligand	decreased invasion	increased invasiveness	abolished	smaller tumors	noninvasive	
HGF: the ligand for Met						increased

Reference: patent US20230075368A1, “IDENTIFICATION OF AN EGFR-BIN3 PATHWAY THAT ACTIVELY SUPPRESSES INVASION AND REDUCES TUMOR SIZE IN GLIOBLASTOMA” (The United States Govemment as represented by the …, priority 2020, published 2023)
